This passage reports EC50 results from US10800772B2 (Gilead Sciences, Inc., priority 2016, dated 2020).

Common to all, as to assay type: cell-based, HIV-1
For one experiment, the system named is HIV-IIIb IN T174I DE. Kind of experiment: Antiviral assay in MT4 cells, HIV-IIIb IN T174I DE virus (from dose escalation passaging). The following applies: Human immunodeficiency virus 1, IIIB, MT4, 120 h, read-out: T174I DE EC50, MT4 cells, HIV-IIIb IN T174I DE (dose escalation), 5 days, CellTiter-Glo. An outline of the steps:
(§1)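 Luminescence from CellTiter-Glo after a 5-day culture served as the measure of HIV-1 replication in MT4 cells. Cells were infected beforehand for 3 h with HIV-IIIb (0.004 m.o.i.) and exposed to ten 3-fold compound dilutions. EC50 corresponds to a 50% signal decrease.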
For orientation: Cellular ATP, detected with luciferase, serves as a proxy for viable cell number.

The test system of a further experiment is HIV-IIIb (wildtype). Kind of experiment: Antiviral assay in MT4 cells, HIV-IIIb wildtype. The following applies: read-out: WT EC50. In outline: as §1
A further experiment deals with HIV-IIIb IN T174I BT. Kind of experiment: Antiviral assay in MT4 cells, HIV-IIIb IN T174I BT virus (from viral breakthrough). The following applies: Human immunodeficiency virus 1, IIIB, MT4, 120 h, read-out: T174I BT EC50, MT4 cells, HIV-IIIb IN T174I BT (viral breakthrough), 5 days, CellTiter-Glo. An outline of the steps: as §1
The mark [1] stands for this setting: Human immunodeficiency virus 1, IIIB, MT4, 120 h.

Structures are written as SMILES. pEC50: −log10 of the molar value. Where two headings read alike, the source gives them in different places.

As usually defined, the pEC50 is −log10 of the EC50, conventionally taken in molar units. Take `Cc1cc2nc(-c3ccc4c(c3)c(N3CCN(C5COC5)CC3)nn4C)sc2c(-c2ccc(Cl)cc2)c1[C@H](OC(C)(C)C)C(=O)O` [Compound 104, (S)-2-(tert-butoxy)-2-(7-(4-chlorophenyl)-5-methyl-2-(1-methyl-3-(4-(oxetan-3-yl)piperazin-1-yl)-1H-indazol-5-yl)benzo[d]thiazol-6-yl)acetic acid]: the pEC50 with HIV-IIIb IN T174I DE was 6.04; in the experiment on HIV-IIIb (wildtype) (setting [1]), 7.96; in the experiment with HIV-IIIb IN T174I BT, 6.31.
The matching figures for `Cc1cc2nc(-c3ccc4c(c3)c(C3CCN(C(=O)OC(C)(C)C)C3)nn4C)sc2c(-c2ccc(Cl)cc2)c1[C@H](OC(C)(C)C)C(=O)O` (stereo partly drawn) [Compound 62, (2S)-2-(tert-butoxy)-2-(2-(3-(1-(tert-butoxycarbonyl)pyrrolidin-3-yl)-1-methyl-1H-indazol-5-yl)-7-(4-chlorophenyl)-5-methylbenzo[d]thiazol-6-yl)acetic acid]: 6.29, 6.97 and 6.48.
The matching figures for `Cc1cc2nc(-c3ccc4c(n3)c(C3CCN(C5CN(C(=O)OC(C)C)C5)CC3)nn4C)sc2c(-c2ccc(Cl)cc2)c1[C@H](OC(C)(C)C)C(=O)O` [Compound 168, (S)-2-(tert-butoxy)-2-(7-(4-chloro-phenyl)-2-(3-(1-(1-(isopropoxy-carbonyl)azetidin-3-yl)piperidin-4-yl)-1-methyl-1H-pyrazolo[4,3-b]pyridin-5-yl)-5-methylbenzo[d]thiazol-6-yl) acetic acid]: 6.34, 7.96 and 6.64.
In the same order, the values of `Cc1cc2nc(-c3ccc4c(c3)c(N3CC[C@H](N(C)C)C3)nn4C)sc2c(-c2ccc(Cl)cc2)c1[C@H](OC(C)(C)C)C(=O)O` [Compound 93, (S)-2-(tert-butoxy)-2-(7-(4-chlorophenyl)-2-(3-((S)-3-(dimethylamino)pyrrolidin-1-yl)-1-methyl-1H-indazol-5-yl)-5-methylbenzo[d]thiazol-6-yl)acetic acid] are 5.46, 7.89 and 6.00.
Take `CCN1CCC(c2nn(C)c3ccc(-c4nc5cc(C)c([C@H](OC(C)(C)C)C(=O)O)c(-c6ccc(Cl)cc6)c5s4)cc23)CC1` [Compound 126, (S)-2-(tert-butoxy)-2-(7-(4-chloro-phenyl)-2-(3-(1-ethylpiperidin-4-yl)-1-methyl-1H-indazol-5-yl)-5-methylbenzo[d]thiazol-6-yl) acetic acid]: the pEC50 with HIV-IIIb IN T174I DE is 6.27; with HIV-IIIb (wildtype) (setting [1]), 8.10; in the experiment with HIV-IIIb IN T174I BT, 6.26.
The matching figures for `CCn1nc(C2CCN(C3COC3)CC2)c2nc(-c3nc4cc(C)c([C@H](OC(C)(C)C)C(=O)O)c(-c5ccc(Cl)cc5)c4s3)ccc21` [Compound 177, (S)-2-(tert-butoxy)-2-(7-(4-chloro-phenyl)-2-(1-ethyl-3-(1-(oxetan-3-yl)piperidin-4-yl)-1H-pyrazolo[4,3-b]pyridin-5-yl)-5-methylbenzo[d]thiazol-6-yl) acetic acid]: 6.73, 8.52 and 7.33.
As for `Cc1cc2nc(-c3ccc4c(c3)c(C3CCN(C5CCC5)CC3)nn4C)sc2c(-c2ccc(Cl)cc2)c1[C@H](OC(C)(C)C)C(=O)O` [Compound 129, (S)-2-(tert-butoxy)-2-(7-(4-chloro-phenyl)-2-(3-(1-cyclobutylpiperidin-4-yl)-1-methyl-1H-indazol-5-yl)-5-methylbenzo[d]thiazol-6-yl) acetic acid], the pEC50 with HIV-IIIb IN T174I DE was 6.16; in the experiment on HIV-IIIb (wildtype) (Human immunodeficiency virus 1, 120 h, MT4 cells, HIV-IIIb wildtype, 5 days, CellTiter-Glo) it was 8.30; in the experiment with HIV-IIIb IN T174I BT it was 6.29.
For `CCC(=O)N1CC(N2CCC(c3nn(C)c4ccc(-c5nc6cc(C)c([C@H](OC(C)(C)C)C(=O)O)c(-c7ccc(Cl)cc7)c6s5)cc34)CC2)C1` [Compound 7, (S)-2-(tert-butoxy)-2-(7-(4-chlorophenyl)-5-methyl-2-(1-methyl-3-(1-(1-propionylazetidin-3-yl)piperidin-4-yl)-1H-indazol-5-yl)benzo[d]thiazol-6-yl)acetic Acid], the pEC50 in the experiment on HIV-IIIb IN T174I DE was 6.86; in the experiment on HIV-IIIb (wildtype) (setting [1]) it was 7.85; in the experiment with HIV-IIIb IN T174I BT it was 6.94.
